Measured values: US20170204380A1, “GLYCOSYL TRANSFERASES AND THEIR USES” (TECHNISCHE UNIVERSITAT MUNCHEN, priority 2014, published 2017)
Like-named read-outs stand apart in the source and are kept apart here. Each block holds one molecule with its values, some of them ahead of it.

Columns and labels:
VvGT16 [1] = target: T1, VvGT16 (Vitis vinifera, UniProt F6HTJ4); assay: Substrate screening, radiochemical analysis with UDP-[14C]glucose; type: biochemical
Procedure: (§1) In the initial screening, each reaction mixture (200 μL in total) contained Tris-HCl buffer (100 mM, pH 8, 10 mM 2-mercaptoethanol), 37 pmol UDP-[^14C]glucose (0.01 μCi, Biotrend, Köln, Germany), substrate (50 μL of a 1 mg/mL stock solution) and purified protein (0.5-0.8 μg/μL). […] The organic phase was mixed with 2 mL Pro Flow P+ cocktail (Meridian Biotechnologies Ltd., Epsom, UK) and radioactivity was determined by liquid scintillation counting (LSC, Tri-Carb 2800TR, Perkin Elmer, Waltham Mass., USA). Additionally, negative controls without substrate were performed.
(§2) The recombinant proteins were expressed with an N-terminal GST-tag, affinity purified and verified by SDS-PAGE and Western Blot using GST-specific antibody.

VvGT14a [2] = target: T2, VvGT14a (Vitis vinifera, UniProt F6H0R6); assay: as above; type: biochemical
T2 sequence (F6H0R6 entry or part of it): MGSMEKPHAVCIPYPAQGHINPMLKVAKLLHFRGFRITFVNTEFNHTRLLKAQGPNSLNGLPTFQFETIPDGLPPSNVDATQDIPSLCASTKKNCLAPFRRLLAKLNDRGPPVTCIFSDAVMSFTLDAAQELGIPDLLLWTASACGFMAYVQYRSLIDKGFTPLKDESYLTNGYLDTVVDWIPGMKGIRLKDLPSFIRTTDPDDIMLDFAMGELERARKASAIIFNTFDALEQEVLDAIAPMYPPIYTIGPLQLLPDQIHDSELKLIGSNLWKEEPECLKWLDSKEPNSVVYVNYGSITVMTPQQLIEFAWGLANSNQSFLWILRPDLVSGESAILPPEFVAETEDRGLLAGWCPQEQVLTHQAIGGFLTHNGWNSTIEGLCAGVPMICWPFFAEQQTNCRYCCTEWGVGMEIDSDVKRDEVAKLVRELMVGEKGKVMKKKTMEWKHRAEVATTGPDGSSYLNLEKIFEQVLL
Procedure: as §1, §2

VvGT15c [3] = target: T3, VvGT15c (Vitis vinifera, UniProt A0ABY9C1E0); assay: as above; type: biochemical
Procedure: as §1, §2

VvGT15b [4] = target: T4, VvGT15b (Vitis vinifera, UniProt A0ABY9C1E0); assay: as above; type: biochemical
Procedure: as §1, §2

VvGT15a [5] = target: T5, VvGT15a (Vitis vinifera, UniProt A0ABY9C1E0); assay: as above; type: biochemical
Procedure: as §1, §2

VvGT16 [6] = target: T1, VvGT16; settings: UDP-glucose fixed 512.5 μM (for UDP-glucose: geraniol fixed 1.25 mM), Tris-HCl pH 8.5, 30° C.
Procedure: (§3) The measurements were performed under the following conditions. […] Radioactivity was determined by LSC.

VvGT14a [7] = target: T2, VvGT14a; settings: for kcat/KM of VvGT14a higher than the value for UGT85B1 from Sorghum bicolor: VvGT14a versus UGT85B1; for Km / kcat: pH 8.5
VvGT15c [8] = target: T3, VvGT15c; type: biochemical; settings: UDP-glucose fixed 833 μM (for UDP-glucose: geraniol fixed 1.25 mM), Tris-HCl pH 7.5, 30° C.
Procedure: as §3

VvGT15b [9] = target: T4, VvGT15b; type: biochemical; settings: UDP-glucose fixed 833 μM (for UDP-glucose: geraniol fixed 1.25 mM), Tris-HCl pH 7.5, 30° C.
Procedure: as §3

VvGT15a [10] = target: T5, VvGT15a; type: biochemical; settings: UDP-glucose fixed 833 μM (for UDP-glucose: geraniol fixed 1.25 mM), Tris-HCl pH 7.5, 30° C.
Procedure: as §3

CaUGT2 = settings: CaUGT2, natural substrate; cited from earlier work
VvGT1 = target: T6, VvGT1 (Vitis vinifera, UniProt P51094); settings: VvGT1, natural substrate; cited from earlier work
T6 sequence (P51094 1-456): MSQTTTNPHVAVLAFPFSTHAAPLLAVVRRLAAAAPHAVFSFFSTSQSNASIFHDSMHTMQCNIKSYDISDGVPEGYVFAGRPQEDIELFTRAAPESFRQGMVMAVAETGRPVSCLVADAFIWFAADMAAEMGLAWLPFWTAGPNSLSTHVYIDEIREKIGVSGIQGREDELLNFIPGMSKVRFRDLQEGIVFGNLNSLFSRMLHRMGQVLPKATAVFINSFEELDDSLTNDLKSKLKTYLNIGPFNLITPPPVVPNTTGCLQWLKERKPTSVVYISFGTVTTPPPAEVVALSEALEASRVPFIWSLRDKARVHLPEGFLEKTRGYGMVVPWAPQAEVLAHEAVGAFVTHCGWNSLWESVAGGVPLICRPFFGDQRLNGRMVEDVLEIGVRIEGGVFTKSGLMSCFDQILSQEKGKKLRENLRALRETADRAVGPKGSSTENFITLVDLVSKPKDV

VvGT6 = settings: cited from earlier work
UGT71G1 = settings: cited from earlier work
VvGT5 = settings: cited from earlier work
[11] = substrate: CC(C)=CCC/C(C)=C\CO; assay: purified protein, by the assay type; type: biochemical, Vitis vinifera; settings: UDP-glucose fixed 833 μM (for UDP-glucose: geraniol fixed 1.25 mM), Tris-HCl pH 7.5, 30° C.
[12] = substrate: CC(C)=CCC[C@H](C)CCO; assay: purified protein, by the assay type; settings: UDP-glucose fixed 833 μM (for UDP-glucose: geraniol fixed 1.25 mM), Tris-HCl pH 7.5, 30° C.

T1 sequence (F6HTJ4 entry or part of it): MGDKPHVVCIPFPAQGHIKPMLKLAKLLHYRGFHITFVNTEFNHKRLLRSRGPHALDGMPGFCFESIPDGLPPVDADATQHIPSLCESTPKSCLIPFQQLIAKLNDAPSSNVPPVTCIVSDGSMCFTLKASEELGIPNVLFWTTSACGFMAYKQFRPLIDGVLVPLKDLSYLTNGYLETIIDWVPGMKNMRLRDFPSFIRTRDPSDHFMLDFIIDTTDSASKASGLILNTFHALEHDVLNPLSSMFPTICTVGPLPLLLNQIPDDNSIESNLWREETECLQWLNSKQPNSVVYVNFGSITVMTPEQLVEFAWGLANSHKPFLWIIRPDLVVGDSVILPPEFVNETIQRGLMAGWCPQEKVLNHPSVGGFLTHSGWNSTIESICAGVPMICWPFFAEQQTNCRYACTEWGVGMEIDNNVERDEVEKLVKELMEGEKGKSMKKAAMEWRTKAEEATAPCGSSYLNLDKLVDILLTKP

Molecule: OCc1ccccc1 [benzyl alcohol]
conversion as substrate (in words) (VvGT16 [1]): highest relative activity
conversion as substrate (in words) (VvGT14a [2]): catalytic activity

conversion as substrate (in words) (VvGT16 [1]): transformed
conversion as substrate (in words) (VvGT15c [3]): glucosylated primarily
conversion as substrate (in words) (VvGT15b [4]): glucosylated primarily
conversion as substrate (in words) (VvGT15a [5]): glucosylated primarily
kcat (VvGT16 [6]): 0.009 s⁻¹
kcat/KM of VvGT14a higher than the value for UGT85B1 from Sorghum bicolor (VvGT14a [7]): 40 fold
Km (VvGT14a [7]): 10 µM
kcat (VvGT14a [7]): 0.02 s⁻¹
Molecule: CC(C)=CCC/C(C)=C\CO [Nerol, (Z)-3,7-dimethyl-2,6-octadien-1-ol]

Molecule: CC/C=C\CCO [cis 3-hexenol]
conversion as substrate (in words) (VvGT16 [1]): transformed
conversion as substrate (in words) (VvGT14a [2]): catalytic activity

Molecule: N#CC(O)c1ccccc1 (stereo not shown) [mandelonitrile]
conversion as substrate (in words) (VvGT15c [3]): not accepted at all
conversion as substrate (in words) (VvGT15b [4]): not accepted at all
conversion as substrate (in words) (VvGT14a [2]): catalytic activity
conversion as substrate (in words) (VvGT14a [2]; listed as Mandelonitrile): poor substrate
conversion as substrate (in words) (VvGT15a [5]): not accepted at all

conversion as substrate (in words) (VvGT16 [1]): transformed
conversion as substrate (in words) (VvGT15c [3]): able to use
conversion as substrate (in words) (VvGT14a [2]): catalytic activity
conversion as substrate (in words) (VvGT15a [5]): able to use
Molecule: CCC/C=C/CO [trans 2-hexenol]

Km (VvGT15c [8]): 43 µM
kcat (VvGT15c [8]): 0.17 s⁻¹
Km (VvGT15b [9]): 81 µM
kcat (VvGT15b [9]): 0.10 s⁻¹
kcat (VvGT15b [9]; listed as geraniol): 0.1 s⁻¹
Km (VvGT15a [10]): 63 µM
kcat (VvGT15a [10]): 0.12 s⁻¹
conversion as substrate (in words) (VvGT15c [3]): glucosylated primarily
conversion as substrate (in words) (VvGT15b [4]): glucosylated primarily
conversion as substrate (in words) (VvGT14a [2]): preferred
conversion as substrate (in words) (VvGT15a [5]): glucosylated primarily
kcat (VvGT16 [6]): 0.015 s⁻¹
kcat/KM of VvGT14a higher than the value for UGT85B1 from Sorghum bicolor (VvGT14a [7]): 4 fold
Km (VvGT14a [7]): 9 µM
kcat (VvGT14a [7]): 0.02 s⁻¹
Molecule: CC(C)=CCC/C(C)=C/CO [Geraniol, (E)-3,7-dimethyl-2,6-octadien-1-ol]

conversion as substrate (in words) (VvGT16 [1]): transformed
conversion as substrate (in words) (VvGT14a [2]): catalytic activity
Molecule: CC(C)=CCO [3-methyl-2-butenol]

conversion as substrate (in words) (VvGT15c [3]): glucosylated primarily
conversion as substrate (in words) (VvGT15b [4]): glucosylated primarily
conversion as substrate (in words) (VvGT15a [5]): glucosylated primarily
Molecule: CCCCCCCCO [octanol]

Molecule: COc1cc(/C=C/C(=O)CC(=O)/C=C/c2ccc(O)c(OC)c2)ccc1O [curcumin]
Km (CaUGT2): 43.9 µM
kcat (CaUGT2): 0.0165 s⁻¹

conversion as substrate (in words) (VvGT14a [2]): catalytic activity
Molecule: C=C(C)CCO [3-methyl-3-butenol]

conversion as substrate (in words) (VvGT14a [2]): catalytic activity
conversion as substrate (in words) (VvGT15a [5]): low activity
Molecule: CC(C)=CCCC(C)=CCCC(C)=CCO [farnesol]

conversion as substrate (in words) (VvGT15c [3]): glucosylated primarily
conversion as substrate (in words) (VvGT15b [4]): glucosylated primarily
conversion as substrate (in words) (VvGT15a [5]): glucosylated primarily
Molecule: CCCCCCO [hexanol]

Molecule: C=CCc1ccc(O)c(OC)c1 [eugenol]
conversion as substrate (in words) (VvGT14a [2]): catalytic activity

Molecule: O=c1c(O)c(-c2ccc(O)c(O)c2)oc2cc(O)cc(O)c12 [quercetin]
Km (VvGT1): 31 µM
kcat (VvGT1): 0.075 s⁻¹
Km (VvGT6): 9.24 µM
kcat (VvGT6): 0.76 s⁻¹
Km (UGT71G1): 57 µM
kcat (UGT71G1): 0.0175 s⁻¹
Km (VvGT5): 5.6 µM
kcat (VvGT5): 7.16 s⁻¹

Molecule: C=CC(C)(O)CC/C=C(\C)CO (stereo not shown) [8-hydroxylinalool]
conversion as substrate (in words) (VvGT15c [3]): able to use
conversion as substrate (in words) (VvGT14a [2]): catalytic activity
conversion as substrate (in words) (VvGT15a [5]): able to use

B1: VvGT15a (Vitis vinifera) (protein)
chain: MPRRVVLVPCPFQGHINPMLQLGAILHSRGFSITVAHTQYNSPDPSNHPDFSFLPIPDGLSDGQNFASLLNLVLAANVNCESPLREYLAEKQEQHGDIACIIHDITMYFAEAVANHLKVPSINLVTSNVSTTIAHNAFPSLLEKGHIPLQGSTLHDPVPELHPLRFKDLPISRLGDLEVFFQILVNMYKKKFSSPIIWNTMDCLEQSSLTQRQQQLQVPFFPIGPLHKLAPPSSSSLLEEDSSCITWLDKQSPKSVIYVSWGSLACMDAKDLAEVAWGLANSNQPFLWVVRPGSVRGSQWIEQLPETFMDTVGERCHIVKWAPQKEVLGHRAVGGFWSHCGWNSTLESISEGVPMICRPYSGDQRVNTRYISHVWKVGLELESDELERVEIERAVRRLMVDGEGEEMRQRAMELKEKVEICTSEGGSSNRALKELVEYISSF
Km ([11]; other: VvGT15a): 48 ± 1.7 µM
kcat ([11]; other: VvGT15a): 0.04 s⁻¹
kcat/Km ([11]; other: VvGT15a): 700 M⁻¹ s⁻¹
Km ([12]; other: VvGT15a): 29 ± 3.0 µM
kcat ([12]; other: VvGT15a): 0.02 s⁻¹
kcat/Km ([12]; other: VvGT15a): 900 M⁻¹ s⁻¹

B2: VvGT15b (Vitis vinifera) (protein)
chain: MPRRVVLVPCPFQGHINPMLQLGAILHSRGFSITVAHTQYNSPDPSNHPDFSFLPIPDGLSDGQNFASLLNLVLAANVNCESPLRECLAEKQEQHGDIACIIHDITMYFAEAVANHLKVPSINLVTSNVSTTIAHNAFPSLLEKGHIPLQGSTLHDPVPELHPLRFKDLPISRLGDLEAFFQILVNMYKKKFSSPIIWNTMDCLEQSSLTQRQQQLQVPFFPIGPLHKLAPPSSSSLLEEDSSCITWLDKHSPKSVIYVSWGSLACMDAKDLAEVAWGLANSNQPFLWVVRPGSVRGSQWIEQLPETFMDTVGERCHIVKWAPQKEVLGHRAVGGFWSHCGWNSTLESISEGVPMICRPYSGDQRVNTRYISHVWKVGLELESDELERVEIERAVRRLMVDGEGEEMRQRAMELKEKVDICTSEGGSSNRALKELVEYISSF
Km ([11]; other: VvGT15b): 40 ± 3.7 µM
kcat ([11]; other: VvGT15b): 0.03 s⁻¹
kcat/Km ([11]; other: VvGT15b): 800 M⁻¹ s⁻¹
Km ([12]; other: VvGT15b): 55 ± 1.3 µM
kcat ([12]; other: VvGT15b): 0.03 s⁻¹
kcat/Km ([12]; other: VvGT15b): 600 M⁻¹ s⁻¹

B3: VvGT15c (Vitis vinifera) (protein)
chain: MPRRVVLVPCPFQGHINPMLQLGAILHSRGFSITVAHTQYNSPDPSNHPDFSFLPIPDGLSDGQNFASLLNLVLAANVNCESPLRECLAEKQEQHGDIACIIHDITMYFAEAVANHLKVPSINLVTSNVSTTIAHNAFPSLLEKGHIPLQGSTLHDPVPELHPLRFKDLPISRLGDLEAFFQILVNMYKKKFSSPIIWNTMDCLEQSSLTQRQQQLQVPFFPIGPLHKLAPPSSSSLLEEDSSCITWLDKHSPKSVIYVSWGSLACMDAKDLAEVAWGLANSNQPFLWVVRPGSVRGSQWIEQLPETFMDTVGERCHIVKWAPQKEVLGHRAVGGFWSHCGWNSTLESISEGVPMICRPYSGDQRVNTRYISHVWKVGLELESDELERVEIERAVRRLMVDGEGEEMRQRAMELKEKVDICTSEGGSSNRALKELVEYISSF
Km ([11]; other: VvGT15c): 28 ± 0.9 µM
kcat ([11]; other: VvGT15c): 0.06 s⁻¹
kcat/Km ([11]; other: VvGT15c): 2200 M⁻¹ s⁻¹
Km ([12]; other: VvGT15c): 20 ± 1.6 µM
kcat ([12]; other: VvGT15c): 0.03 s⁻¹
kcat/Km ([12]; other: VvGT15c): 1800 M⁻¹ s⁻¹
